In US9206130B2, “Quinoline derivatives as AXL kinase inhibitors” (Max-Planck-Gesellschaft zur Förderung der Wissenschaften …, priority 2008, dated 2015) one finds IC50 and melting point data, which are given here for 21 molecules.

In data set [1] the target is T1, wild type AXL (wtAXL) receptor tyrosine kinase (Homo sapiens, UniProt P30530).
T1 construct: WtAXL cDNA was cloned into vector pLXSN(ESK) and transfected into Phoenix E packaging cells; expressed in transfected cells; host or cells: NIH3T3 N7 mouse fibroblasts, retrovirally infected (clone 22)
T1 sequence (P30530 26-894): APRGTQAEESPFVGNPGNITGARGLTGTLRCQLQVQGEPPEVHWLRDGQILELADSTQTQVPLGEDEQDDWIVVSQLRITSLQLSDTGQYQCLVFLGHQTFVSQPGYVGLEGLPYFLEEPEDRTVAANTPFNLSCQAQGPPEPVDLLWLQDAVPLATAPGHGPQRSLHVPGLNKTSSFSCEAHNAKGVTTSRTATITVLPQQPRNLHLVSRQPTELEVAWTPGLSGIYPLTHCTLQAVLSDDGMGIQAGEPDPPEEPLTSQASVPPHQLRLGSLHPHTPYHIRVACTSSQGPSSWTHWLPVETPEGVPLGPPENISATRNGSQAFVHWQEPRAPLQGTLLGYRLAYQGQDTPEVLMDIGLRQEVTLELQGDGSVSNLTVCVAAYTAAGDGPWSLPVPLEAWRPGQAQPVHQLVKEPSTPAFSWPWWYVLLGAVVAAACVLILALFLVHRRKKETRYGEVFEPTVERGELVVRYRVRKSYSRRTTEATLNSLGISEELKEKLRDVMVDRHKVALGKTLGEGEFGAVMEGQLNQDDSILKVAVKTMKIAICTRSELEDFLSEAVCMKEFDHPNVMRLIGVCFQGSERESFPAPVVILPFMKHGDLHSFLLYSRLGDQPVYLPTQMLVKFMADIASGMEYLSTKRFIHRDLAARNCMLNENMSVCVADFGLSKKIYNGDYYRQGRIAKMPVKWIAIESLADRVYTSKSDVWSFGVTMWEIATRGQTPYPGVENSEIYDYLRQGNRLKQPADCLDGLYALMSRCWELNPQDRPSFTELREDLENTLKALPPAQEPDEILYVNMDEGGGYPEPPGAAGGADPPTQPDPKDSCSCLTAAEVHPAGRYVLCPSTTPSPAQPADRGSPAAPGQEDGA
Description: NIH-3T3-AXL cellular tyrosine kinase assay (inhibition of AXL phosphorylation). Format: cell-based. To be noted: AXL phosphorylation in NIH-3T3-AXL (clone 22) cells, serum-depleted, 2 h with compound, immunoprecipitation / anti-phosphotyrosine blot. An outline of the steps:
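NIH3T3 clones stably expressing human wtAXL (puromycin-selected) were exposed to serially diluted compounds for 2 h. AXL was immunoprecipitated from lysates with anti-AXL antibody, and phosphorylation detected by anti-phosphotyrosine (4G10) western blot with ECL.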

As a reminder, the IC50 is the concentration that gives 50% inhibition. As usually defined, the melting point is the temperature of the solid-liquid transition. In turn, `Cc1cc(Oc2ccc(NS(=O)(=O)c3cccs3)c(F)c2)c2cc(F)ccc2n1` [Example B1, Thiophene-2-sulfonic acid [2-fluoro-4-(6-fluoro-2-methyl-quinolin-4-yloxy)-phenyl]-amide] registered a melting point of 166 to 167 °C. Moreover, the IC50 in data set [1] is greater than 10 µM.
On the same counts, the results for `COc1cc2nccc(Oc3ccc(NS(=O)(=O)c4cccc(Br)c4)c(F)c3)c2cc1OC` [Example A24, 3-Bromo-N-[4-(6,7-dimethoxy-quinolin-4-yloxy)-2-fluoro-phenyl]-benzenesulfonamide] are 255 to 257 °C and 2.4 µM.
On the same counts, the results for `COc1cc2nccc(Oc3ccc(NS(=O)(=O)c4ccc(Br)cc4OC(F)(F)F)cc3OC)c2cc1OC` [Example A148, 4-Bromo-N-[4-(6,7-dimethoxy-quinolin-4-yloxy)-3-methoxy-phenyl]-2-trifluoromethoxy-benzenesulfonamide] are 176 to 177 °C and greater than 10 µM.
On the same counts, the results for `COc1cc2nccc(Oc3ccc(NS(=O)(=O)c4cc5ccccc5s4)cc3)c2cc1OC` [Example A83, Benzo[b]thiophene-2-sulfonic acid [4-(6,7-dimethoxy-quinolin-4-yloxy)-phenyl]-amide] are 222 to 225 °C and greater than 3 µM.
Turning to `COc1cc2nccc(Oc3ccc(NS(=O)(=O)c4cccc(-c5ncccn5)c4)c(C)c3)c2cc1OC` [Example A93, N-[4-(6,7-Dimethoxy-quinolin-4-yloxy)-2-methyl-phenyl]-3-pyrimidin-2-yl-benzenesulfonamide], the melting point lay in the range of 103 to 105 °C. Moreover, the IC50 in data set [1] is greater than 3 µM.
On the same counts, the results for `COc1cc2nccc(Oc3ccc(NS(=O)(=O)c4ccc(Br)c(F)c4)c(F)c3)c2cc1OC` [Example A11, 4-Bromo-N-[4-(6,7-dimethoxy-quinolin-4-yloxy)-2-fluoro-phenyl]-3-fluoro-benzenesulfonamide] are 209 to 211 °C and 2.26 µM.
For `COc1cc2nccc(Oc3ccc(NS(=O)(=O)c4ccc(OC)c5ccccc45)c(F)c3)c2cc1OC` [Example A63, 4-Methoxy-naphthalene-1-sulfonic acid [4-(6,7-dimethoxy-quinolin-4-yloxy)-2-fluoro-phenyl]-amide], in that order: 226 to 227 °C and greater than 1 µM.
For `COc1cc2nccc(Oc3ccc(NS(=O)(=O)c4cc(F)ccc4F)c(C)c3)c2cc1OC` [Example A151, N-[4-(6,7-Dimethoxy-quinolin-4-yloxy)-2-methyl-phenyl]-2,5-difluoro-benzenesulfonamide], in that order: 259 to 260 °C and greater than 10 µM.
`CCn1cc(S(=O)(=O)Nc2ccc(Oc3cc(C)nc4ccc(F)cc34)cc2)cn1` [Example B21, 1-Ethyl-1H-pyrazole-4-sulfonic acid [4-(6-fluoro-2-methyl-quinolin-4-yloxy)-phenyl]-amide]: the melting point lay within 165 to 167 °C. Moreover, in data set [1], the IC50 was greater than 10 µM.
`COc1cc2nccc(Oc3ccc(NS(=O)(=O)c4cn(C)cn4)c(F)c3)c2cc1OC` [Example A32, 1-Methyl-1H-imidazole-4-sulfonic acid [4-(6,7-dimethoxy-quinolin-4-yloxy)-2-fluoro-phenyl]-amide]: the melting point lay within 215 to 217 °C. The IC50 in data set [1] was greater than 10 µM.
On the same counts, the results for `CCOc1ccc(S(=O)(=O)Nc2ccc(Oc3ccnc4cc(OC)c(OC)cc34)cc2F)cc1C` [Example A62, N-[4-(6,7-Dimethoxy-quinolin-4-yloxy)-2-fluoro-phenyl]-4-ethoxy-3-methyl-benzenesulfonamide] are 158 to 160 °C and 0.47 µM.
For `COc1cc2nccc(Oc3ccc(NS(=O)(=O)c4ccc(Br)c(C)c4)c(F)c3)c2cc1OC` [Example A19, 4-Bromo-N-[4-(6,7-dimethoxy-quinolin-4-yloxy)-2-fluoro-phenyl]-3-methyl-benzenesulfonamide], in that order: 199 to 201 °C and 4.5 µM.
`COc1cc2nccc(Oc3ccc(NS(=O)(=O)c4ccc(-c5ccccc5)cc4)c(F)c3)c2cc1OC` [Example A136, Biphenyl-4-sulfonic acid [4-(6,7-dimethoxy-quinolin-4-yloxy)-2-fluoro-phenyl]-amide] registered a melting point of 199 to 201 °C. Moreover, in data set [1], the IC50 is greater than 10 µM.
For `COc1cc2nccc(Oc3ccc(NS(=O)(=O)c4cccc(-c5ncccn5)c4)cc3F)c2cc1OC` [Example A101, N-[4-(6,7-Dimethoxy-quinolin-4-yloxy)-3-fluoro-phenyl]-3-pyrimidin-2-yl-benzenesulfonamide], in that order: 105 to 107 °C and greater than 1 µM.
For `Cc1cc(Oc2ccc(NS(=O)(=O)c3cccc(Oc4ccccc4)c3)c(F)c2)c2cccc(C(F)(F)F)c2n1` [Example C03, N-[2-Fluoro-4-(2-methyl-8-trifluoromethyl-quinolin-4-yloxy)-phenyl]-3-phenoxy-benzenesulfonamide], in that order: 167 to 168 °C and greater than 10 µM.
For `COc1cc2c(Oc3ccc(NS(=O)(=O)c4ccc(F)cc4F)cc3F)ccnc2cc1OCCN1CCOCC1` [Example D28, 2,4-Difluoro-N-{3-fluoro-4-[6-methoxy-7-(2-morpholin-4-yl-ethoxy)-quinolin-4-yloxy]-phenyl}-benzenesulfonamide], in that order: 189 to 191 °C and greater than 1 µM.
Consider `COc1cc2nccc(Oc3ccc(NS(=O)(=O)c4ccc(C)s4)c(F)c3)c2cc1OC` [Example A21, 5-Methyl-thiophene-2-sulfonic acid [4-(6,7-dimethoxy-quinolin-4-yloxy)-2-fluoro-phenyl]-amide], for which the melting point lay in the range of 218 to 220 °C. In data set [1], the IC50 came out at 4.7 µM.
For `COc1cc2nccc(Oc3ccc(NS(=O)(=O)c4cc(F)ccc4F)cc3)c2cc1OC` [Example A118, N-[4-(6,7-Dimethoxy-quinolin-4-yloxy)-phenyl]-2,5-difluoro-benzenesulfonamide], in that order: 260 to 263 °C and 0.54 µM.
In turn, `COc1cc2nccc(Oc3ccc(NS(=O)(=O)c4ccccc4OC(F)(F)F)cc3F)c2cc1OC` [Example A126, N-[4-(6,7-Dimethoxy-quinolin-4-yloxy)-3-fluoro-phenyl]-2-trifluoromethoxy-benzenesulfonamide] returned a melting point of 203 to 204 °C. The IC50 in data set [1] turned out to be 0.13 µM.
`Cc1cc(Oc2ccc(NS(=O)(=O)c3cccc(C#N)c3)c(F)c2)c2cc(F)ccc2n1` [Example B2, 3-Cyano-N-[2-fluoro-4-(6-fluoro-2-methyl-quinolin-4-yloxy)-phenyl]-benzenesulfonamide] returned a melting point of 190 to 191 °C. The IC50 in data set [1] was greater than 10 µM.
For `COc1cc2nccc(Oc3ccc(NS(=O)(=O)c4ccc5c(c4)CC(=O)N5C)c(C)c3)c2cc1OC` [Example A95, 1-Methyl-2-oxo-2,3-dihydro-1H-indole-5-sulfonic acid [4-(6,7-dimethoxy-quinolin-4-yloxy)-2-methyl-phenyl]-amide], in that order: 115 to 116 °C and greater than 10 µM.
